Reference: US6737383B1, “Herbicidal oxadiazolidines” (priority 1999, dated 2004)

Columns and labels:
bamyardgrass = assay: Test B flood test barnyardgrass; type: in vivo, Echinochloa crus-galli; conditions: for Plant response rating, Barnyardgrass (0 to 10 scale, 0 is no effect, 10 is complete control): Rate 62 g/ha; for Plant response rating, Barnyardgrass (0 to 10 scale, 0 is no effect, 10 is complete control) / Barnyardgrass plant response rating (0 to 10 scale, 0 is no effect, 10 is complete control): visual evaluation after twelve to sixteen days; for Barnyardgrass plant response rating (0 to 10 scale, 0 is no effect, 10 is complete control): Rate 125 g/ha, under heading Pre-emergence
Procedure, shortened: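 Plants were grown to the 2-leaf stage before treatment with test chemical, then held in a greenhouse for twelve to sixteen days. Injury was visually rated against untreated controls on a 0–10 scale, where 0 is no effect and 10 is complete control.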

crabgrass = assay: Test B pre/postemergence crabgrass; type: in vivo, Digitaria sanguinalis
Procedure, shortened: (§1)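 Response is a visual 0-to-10 score relative to untreated plants, where 0 means no effect and 10 means complete control, taken twelve to sixteen days after application. Treatments went onto soil at planting and onto foliage of 1- to 4-leaf plants, using a surfactant-containing non-phytotoxic solvent.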

blackgrass = assay: Test B pre/postemergence blackgrass; type: in vivo, Alopecurus myosuroides
Procedure, shortened: as §1

morningglory = assay: Test B pre/postemergence morningglory; type: in vivo, Ipomoea hederacea; conditions: for Plant response rating, Morningglory: scale of 0 to 10 where 0 is no effect and 10 is complete control
Procedure, shortened: as §1

[1] = flood test species, Pre-emergence
[2] = Rate 250 g/ha, Pre-emergence (flood test species), scale 0 to 10, 0 is no effect, 10 is complete control
[3] = Rate 500 g/ha, Pre-emergence, flood test species, scale 0 to 10 (0 no effect, 10 complete control)
[4] = Postemergence, Rate 250 g/ha, scale 0 to 10
[5] = Postemergence, Rate 500 g/ha, scale of 0 to 10 where 0 is no effect and 10 is complete control
[6] = Preemergence, Rate 62 g/ha, scale of 0 to 10 where 0 is no effect and 10 is complete control
[7] = Preemergence, Rate 125 g/ha, scale of 0 to 10 where 0 is no effect and 10 is complete control
[8] = Preemergence, Rate 250 g/ha, scale 0 to 10, 0 is no effect, 10 is complete control
[9] = Preemergence, Rate 500 g/ha, scale 0 to 10, 0 is no effect, 10 is complete control
[10] = Rate 62 g/ha, Postemergence, scale 0 to 10, 0 no effect, 10 complete control
[11] = Rate 125 g/ha, Postemergence, scale 0 to 10, 0 is no effect, 10 is complete control
[12] = Postemergence, Rate 125 g/ha, scale 0 to 10, 0 is no effect, 10 is complete control
[13] = Preemergence, Rate 125 g/ha, scale 0 to 10, 0 is no effect, 10 is complete control
[14] = Postemergence, Rate 31 g/ha, visual rating, scale 0 to 10 (0 no effect, 10 complete control)
[15] = Preemergence, Rate 31 g/ha, visual rating, scale 0 to 10 (0 no effect, 10 complete control)

Compound	Plant response rating, Barnyardgrass (0 to 10 scale, 0 is no effect, 10 is complete control) (bamyardgrass; [1])	Barnyardgrass plant response rating (0 to 10 scale, 0 is no effect, 10 is complete control) (bamyardgrass; flood test species)	Barnyardgrass plant response rating (bamyardgrass; [2])	Barnyardgrass plant response rating (bamyardgrass; [3])	Crabgrass plant response rating (crabgrass; [4])	Crabgrass plant response rating (crabgrass; [5])	Plant response rating, Crabgrass (crabgrass; [6])	Crabgrass plant response rating (crabgrass; [8])	Crabgrass plant response rating (crabgrass; [9])	Crabgrass plant response rating (crabgrass; [10])	Blackgrass plant response rating (blackgrass; [4])	Blackgrass plant response rating (blackgrass; [5])	Plant response rating, Blackgrass (blackgrass; [6])	Blackgrass plant response rating (blackgrass; [8])	Blackgrass plant response rating (blackgrass; [9])	Blackgrass plant response rating (blackgrass; [10])	Morningglory plant response rating (morningglory; [4])	Plant response rating, Morningglory (morningglory; Preemergence, Rate 62 g/ha)	Morningglory plant response rating (morningglory; [8])	Morningglory plant response rating (morningglory; [10])	also measured
CC(C)N(C(=O)n1oc(=O)n(C(C)C#N)c1=O)c1ccc(Cl)cc1 (centres unmarked) [Compound 451]	0	0	0	0	4	6	0	1	7	0	2	6	0	0	0	0	1	0	0	1	Plant response rating, Crabgrass (crabgrass; [7]): 0; Crabgrass plant response rating (crabgrass; [11]): 0; Plant response rating, Blackgrass (blackgrass; [7]): 0; Blackgrass plant response rating (blackgrass; [11]): 0; Plant response rating, Morningglory (morningglory; Preemergence, Rate 125 g/ha): 0; Morningglory plant response rating (morningglory; [9]): 0; Morningglory plant response rating (morningglory; [11]): 1
CC(C)N(C(=O)n1oc(=O)n(C(C)CCl)c1=O)c1ccc(Cl)cc1 (centres unmarked) [Compound 456]	0	0	0	0	4	7	6	8	9	4	4	8	0	3	6	4	5	0	3	3	Plant response rating, Crabgrass (crabgrass; [7]): 6; Plant response rating, Blackgrass (blackgrass; [7]): 2; Blackgrass plant response rating (blackgrass; [11]): 4; Plant response rating, Morningglory (morningglory; Preemergence, Rate 125 g/ha): 0; Morningglory plant response rating (morningglory; [9]): 3; Morningglory plant response rating (morningglory; [11]): 3
CC(C)N(C(=O)n1oc(=O)n(CC#N)c1=O)c1ccc(Cl)cc1 [Compound 476]	0	0	0	0	0	0	0	0	0	0	0	2	0	0	0	0	0	0	0	0	Plant response rating, Crabgrass (crabgrass; [7]): 0; Crabgrass plant response rating (crabgrass; [11]): 0; Plant response rating, Blackgrass (blackgrass; [7]): 0; Blackgrass plant response rating (blackgrass; [11]): 0; Plant response rating, Morningglory (morningglory; Preemergence, Rate 125 g/ha): 0; Morningglory plant response rating (morningglory; [9]): 0; Morningglory plant response rating (morningglory; [11]): 0
CC(C)N(C(=O)n1oc(=O)n(Cc2cnc(Cl)s2)c1=O)c1ccc(F)cc1 [Compound 482]	0	0	0	0	1	3	3	8	8	0	0	0	0	0	4	0	8	0	0	5	Crabgrass plant response rating (crabgrass; [12]): 0; Crabgrass plant response rating (crabgrass; [13]): 8; Blackgrass plant response rating (blackgrass; [12]): 0; Blackgrass plant response rating (blackgrass; [13]): 0; Morningglory plant response rating (morningglory; [12]): 7; Morningglory plant response rating (morningglory; [13]): 0; Morningglory plant response rating (morningglory; [9]): 0
CC(C)N(C(=O)n1oc(=O)n(CC[N+](=O)[O-])c1=O)c1ccc(Cl)cc1 [Compound 483]	0	0	0	–	0	–	0	0	–	0	0	–	0	0	–	0	0	0	0	0	Barnyardgrass plant response rating (bamyardgrass; Rate 31 g/ha, Pre-emergence section (flood test species), scale 0 to 10): 0; Crabgrass plant response rating (crabgrass; [14]): 0; Crabgrass plant response rating (crabgrass; [12]): 0; Crabgrass plant response rating (crabgrass; [15]): 0; Crabgrass plant response rating (crabgrass; [13]): 0; Blackgrass plant response rating (blackgrass; [14]): 0; Blackgrass plant response rating (blackgrass; [12]): 0; Blackgrass plant response rating (blackgrass; [15]): 0; Blackgrass plant response rating (blackgrass; [13]): 0; Morningglory plant response rating (morningglory; [14]): 0; Morningglory plant response rating (morningglory; [12]): 0; Morningglory plant response rating (morningglory; [13]): 0
